The source of these data is US20230357099A1, “PYRAZOLO [3,4-B] PYRIDINE-4-CARBOXAMIDE NITRIFICATION INHIBITOR” (EUROCHEM ANTWERPTEN, priority 2020, published 2023).

SMILES strings stand for the structures.

In assay [1] the test system is Candidatus Nitrospira kreftii. In words: Nitrification inhibition in Candidatus Nitrospira kreftii. Format: cell-based. Conditions: concentration of 6.25 µM. How it is done:
Candidatus Nitrospira kreftii is a high (90%) enrichment of novel comammox species. To quantify nitrification inhibition in Ca. Nitrospira kreftii, a homogenous sample was taken from the bioreactor, washed and resuspended in sterile NOB mineral salts medium supplemented with (per liter) 1 mL of a trace element stock solution composed of NTA (15 g/L), ZnSO4 · 7H2O (0.43 g/L), CoCl2 · 6H2O (0.24 g/L), MnCl2 · 4H2O (0.99 g/L), CuSO4 · 5H2O (0.25 g/L), Na2MoO4 · 2H2O (0.22 g/L), NiCl2 · 6H2O (0.19 g/L), NaSeO4·10H2O (0.021 g/L), […] (0.014 g/L), CeCl·6H2O (0.24 g/L) and 1 mL of an iron stock solution composed of NTA (10 g/L) and FeSO4 (5 g/L). The final ammonium concentration was 200 µM.
To increase the nitrification rate, the cell density was increased 5 times via centrifugation. For homogenous distribution of the flocs, Ca. Nitrospira kreftii was continuously stirred during distribution with a multichannel pipet in the 96-well plates. […]
Ammonium concentrations were measured fluorescently via a modified orthophatal-dialdehyde assay. Nitrite and nitrate concentrations were determined consecutively with a spectrophotometer (at 540 nm): for nitrite, after addition of 100 µL Griess reagent to 100 µL sample (10 min incubation at room temperature) and for nitrate, subsequent to secondary addition of 27 µL of a saturated VCl3 solution in HCl (30 min incubation at 60° C.).

In assay [2] the test system is agricultural soils. In words: In soil nitrification inhibition assay. Conditions: soil; for inhibition at 50 µM: 50 µM of each compound; for inhibition at 100 µM: 100 µM of each compound. How it is done: Top layer (0 to 10 cm) soil samples were collected from different fields in Belgium (Merelbeke, Sint-Laureins and Moorslede). Vegetation was removed and samples were taken from different plots. All soil samples were mixed and sieved (mesh size 2.8 mm) to filter large debris and homogenize soil. The soil was stored at 5° C. in plastic containers covered with Saran foil to prevent changes in microbial community composition and to maintain the original soil water content.
Soil water content was determined by drying 20 g soil for ≥ 48 h in a 60° C. oven and measuring weight before and after drying. Based on the soil water content (± 20%), compound solutions were prepared so that addition of 200 µl compound and 200 µl NH4Cl solution would result in a final compound concentration of 50 µM (unless otherwise stated) and a final NH4+ concentration of 10 mM. Per treatment, 5 small pots were filled with 20 g soil. Next, the soil was treated first with the respective compound solution and then with the NH4Cl solution. Per tray, positive (50 µM DMP) and negative controls (DMSO) were included. […] Demineralized water was added to the soil every 2 to 3 days to a soil weight of 20 g. In the end, each sample of 20 g soil was dissolved in 100 ml 1 M KCI and shaken for 1 hour, followed by filtration through Whatmann® paper. The filtrate was used to measure pH, NH4+ and NO3— concentrations. The nitrification percentage was calculated as the ratio of the consumed ammonium in treated soil versus the consumed ammonium in non-treated soil; the nitrification inhibition percentage was calculated as ‘100% - the nitrification percentage’.

The inhibition is the relative decrease from the control value, in per cent. As to `CC(C)c1cc(C(=O)N2CCSCC2)c2cnn(C(C)C)c2n1` [Example 2], the inhibition at 6.25 µM in assay [1] worked out at 57.3%. Moreover, the inhibition at 50 µM in assay [2] (72 h, Soil 2, 3 days) came out at 4%; in assay [2] (72 h, Soil 3, 3 days), 5%; in assay [2] (168 h, Soil 1, 7 days), 0%; in assay [2] (168 h, Soil 2, 7 days), 15%; in assay [2] (168 h, Soil 3, 7 days), 0%. Moreover, the inhibition at 100 µM in assay [2] (168 h, Soil 2, 7 days, 6 inhibitors alone and combined with Example 2) was 0%; in assay [2] (168 h, Soil 2, 7 days, double and triple combinations) it was 0%.
